Experimental data taken from patent publication US5376681A, “Aminocoumaran derivatives, their production and use” (Takeda Chemical Industries, Ltd., priority 1990, dated 1994).

System: behavior induced by spinal intrathecal injection of FeCl2 in mice
Assay: Effect of drugs on the change of the behavior induced by spinal intrathecal injection of FeCl2 in mice (Experiment 1)
Assay type: in vivo, mice (male Slc: ICR)
Settings: oral, 30 minutes prior to ferrous chloride injection; for % inhibition: 100 mg/kg, calculated from mean scores vs saline; for Mean Score Administration of Test Compound of 100 mg/kg: behavioral score 0 (normal) to 5 (death), 10 mice per group
Procedure: Effect of drugs on the change of the behavior induced by spinal intrathecal injection of FeCl2 in mice
Male Slc: ICR mice (5 weeks) (10 mice per group) were used. Saline (5 μl/mouse) containing 50 mM FeCl2 was injected into the subarachnoid space between the 6th lumbar segment and the 1st sacral and scored as follows.
Percent inhibitions were calculated based on the scores evaluated above. The test compounds were orally administered 30 minutes prior no ferrous chloride injection. […]

Row | Compound | % inhibition [%] | Mean Score Administration of Test Compound of 100 mg/kg
1 | Cc1c(C)c2c(c(C)c1N)CC(C)(Cc1ccccc1)O2 (stereo not shown) [Example 1, 5-Amino-2-benzyl-2,4,6,7-tetramethyl-2,3-dihydrobenzofuran] | 73.9 | 1.2
2 | Cc1c(C)c2c(c(C)c1N)CC(C)(CCc1ccc(F)cc1)O2 (stereo not shown) [Example 85, 5-Amino-2,4,6,7-tetramethyl-2-[2-(4-fluorophenyl)ethyl]-2,3-dihydrobenzofuran] | 87.0 | 0.6
3 | Cc1c(C)c2c(c(C)c1N)CC(C)(C)O2 [Example 103, 5-Amino-2,2,4,6,7-pentamethyl-2,3-dihydrobenzofuran] | 98.0 | 0.1
4 | Cc1c(C)c2c(c(C)c1N)CC(C)(CCc1ccccc1)O2 (stereo not shown) [Example 84, 5-Amino-2,4,6,7-tetramethyl-2-(2-phenylethyl)-2,3-dihydrobenzofuran] | 89.1 | 0.5
5 | CCNc1c(C)c(C)c2c(c1C)CC(C)(CCc1ccc(F)cc1)O2 (stereo not shown) [Example 47, 5-Ethylamino-2-[2-(4-fluorophenyl)ethyl]-2,4,6,7-tetramethyl-2,3-dihydrobenzofuran] | 79.6 | 1.0
